According to patent US11643655B2, “Methods for intracellular delivery and enhanced gene targeting” (CITY OF HOPE, priority 2016, dated 2023):
Values joined by “and” are separate entries in the source; they are usually repeats but may differ in a detail not shown here. Equal entries are not always repeated. “Also recorded” adds a separate entry of the source. Where two headings read alike, the source gives them in different places. l = locked nucleic acid (LNA); d = 2'-deoxy (DNA)

Columns and labels:
[1] = system: HeLa EGFP-654 cells; assay: SSO-654-mediated EGFP expression (splice switching) in HeLa EGFP-654 cells; flow cytometry, Western blot, microscopy; type: cell-based, human
[2] = cited from earlier work
[3] = system: PKR; assay: PKR expression by real-time PCR (cellular stress response) in HeLa-GFP-654 cells; type: cell-based, human
[4] = system: HeLa-EGFP-654 and LNCaP cells; type: cell-based, human
[5] = system: HeLa EGFP-654 cells; assay: Cell growth and proliferation, SRB staining; conditions: two days
[6] = system: β-catenin; type: cell-based, human
[7] = cited from earlier work; remark: listed apart in the source
[8] = oligonucleotides delivered by gymnosis; cited from earlier work
[9] = system: AR mRNA; assay: AR mRNA RT-PCR in LNCaP cells; type: cell-based, human; conditions: 1 μM AR-ASO with 5 mM NH4^+, 24 hr, p<0.01
Experimental: Values were normalized to GAPDH mRNA expression and expressed as the mean±SD, n=3. **p<0.01, Students t-test.
RNA was extracted from cells using RNA-STAT 60 (AMS Biotechnology, Abingdon, UK) as recommended by the manufacturer. First-strand cDNA was synthesized with the Super-Script® III First-Strand Synthesis System Kit (Invitrogen, Carlsbad, Calif.). PCR was performed with Power SYBR GREEN PCR Master Mix (Thermo Fisher Scientific, Waltham, Mass.).

[10] = system: androgen receptor (AR); assay: ASO silencing of AR protein expression, Western blot; type: cell-based, human; conditions: LNCaP cells; for reduction in AR protein expression: three days
Experimental: Cells were harvested with trypsin digestion and washed once with PBS. Cell pellets were lysed in cold RIPA buffer containing protease inhibitors. Cellular RIPA lysates were sonicated for 2 seconds and then rested on ice for 5 min. Cell debris was removed by centrifugation at 12,000×g for 10 min at 4° C. Protein concentrations were determined using the Pierces BCA Protein Assay kit (Thermo Fisher Scientific, Waltham, Mass.). Aliquots of cell extracts containing 30-40 μg of protein were resolved by SDS-PAGE gel electrophoresis, and then transferred to PVDF membranes. After treatment with the appropriate primary and secondary antibodies, enhanced chemiluminescence was performed. Protein signals on the blot were quantified with the Image J program and protein expression was normalized to control=100%.
Protein expression was quantified with ImageJ.

[11] = system: BCL-2; type: cell-based, human
[12] = system: CDR1; type: cell-based, human
[13] = system: Malat-1; type: cell-based, human
[14] = system: HeLa EGFP-654 cells
[15] = system: HDAC-2 mRNA; type: cell-based, human
[16] = system: eGFP mRNA; type: cell-based, human

In the case of O=C1Nc2cc(Br)ccc2/C1=C1/Nc2ccccc2/C1=N\O [6BIO], the “frequency of splice switching (correctly spliced eGFP expression)” value (“frequency of splice switching” for short) [1] is reported as “increased frequency of splice switching”.

For Nc1c(Br)cc(Br)cc1CN[C@H]1CC[C@H](O)CC1 [Ambroxol], the “SSO-654 activity (EGFP MFI)” value [1] is given as “significantly enhanced SSO-654 activity” and the pKa [2] is given as 9.1.

For OO [H2O2, hydrogen peroxide], the “frequency of splice switching” value [1] was “increased frequency of splice switching”, the “oligonucleotide (SSO) function, flow cytometry” value [1] was “able to increase oligonucleotide function” and the “PKR activation / expression” value ([3]; oligonucleotide (SSO) combined with the treatment) was “increasing PKR expression”.

With Cl.N [NH4^+, Ammonium chloride] the “cellular uptake of Cy5-ASO (Cy5 MFI)” value [4] was “did not significantly affect the cellular uptake”, the “effect on cell growth” value ([5]; NH4^+ alone 1 mM-2 mM) was “did not affect the growth” and the “inhibition of cell growth” value ([5]; NH4^+ alone 5 mM, normalized to non-treated controls) was “about 15%”. For the same molecule, the “activity of lipofected SSO-654 (EGFP MFI)” value [1] was “did not enhance the activity of the SSO-654”, the “increase of SSO-654-induced EGFP protein expression” value [1] was “more than two-fold” and the “increase of SSO-654 function and EGFP expression compared to SSO-654 alone” value [1] was “a minimum of five fold”. For the same molecule, the “increase of percentage of EGFP positive cells and EGFP protein expression compared to SSO-654 alone” value [1] was “nearly seven-fold”, the “increase of percentage of EGFP-positive cells, NH4^+/SSO-654 vs SSO-654” value [1] was “nearly four-fold” and the “oligonucleotide (SSO) function, flow cytometry” value [1] was “able to increase oligonucleotide function”. For the same molecule, the “upregulation of SSO-654-mediated EGFP expression” value [1] was “three- to five-fold”, the “increase of β-Cat-ASO efficacy” value [6] was “approximately two fold” and the “PKR activation / expression” value [3] was “does not seem to activate the stress gene response”.

For CCC(=O)N1CC(=O)Nc2ccc(Br)cc2C1c1ccccc1 (stereo not drawn) [Retro-1], the water solubility [7] is given as “poorly water-soluble” and the “optimal concentration for enhancing SSO and ASO efficacy” value [8] is given as 50 to 100 µM.

In the case of CC(=O)O.N [ammonium acetate], the “effect on SSO-654-mediated EGFP expression compared with NH4^+” value [1] is reported as “comparable effects”.

With NC1CCCCC1 [cyclohexylamine] the “SSO-654 activity (EGFP MFI)” value [1] was “significantly enhanced SSO-654 activity”.

For CCCCCCCC/C=C\CCCCCCCC(=O)O [oleic acid], the “SSO-654 activity (EGFP MFI)” value [1] was “significantly enhanced SSO-654 activity”.

With “AR-ASO: Phosphorothioate LNA gapmer ASO targeting Androgen Receptor, 5′-ACCaagtttcttcAGC-3′ (SEQ ID NO: 6) (antisense ACCAAGTTTCTTCAGC; sugars from the 5' end l3 d10 l3, all phosphorothioate, methylation of C not given here)” the “reduction of AR mRNA expression compared with the AR-ASO alone” value [9] was “about 40%”, the “AR reduction, dose response” value ([10]; 0.25 μM AR-ASO with 5 mM NH4^+ vs 1 μM AR-ASO alone) was “greater AR reduction than 1 μM AR-ASO alone” and the “reduction in AR protein expression” value ([10]; 1 μM AR-ASO alone) was 40%. For the same molecule, the “reduction in AR protein expression” value ([10]; 1 μM AR-ASO with 5 mM NH4^+) was 80% and the “inhibition of NH4^+ and SSO-654-mediated EGFP expression by a second ASO” value [1] was “only slight or no inhibition”.

In the case of “BCL2-ASO: Phosphorothioate LNA gapmer ASO targeting BCL-2, 5′-^mCTcccagcgtgcg^mC^mCa-3′ (SEQ ID NO: 3)”, the “effect of BCL2-ASO on SSO-654 activity and EGFP expression” value [1] is reported as “diminished”, the “effect of BCL2-ASO on SSO-654 function” value [1] is reported as “did not affect SSO-654 function” and the “BCL2 silencing (BCL-2 protein expression)” value [11] is reported as 65%. The BCL-2 protein expression [11] was “nearly completely depleted BCL-2 protein expression; also recorded: Some silencing of the BCL-2 protein expression” and the “depletion of BCL-2 protein expression” value [11] was 98% and 70%.

In the case of arsenic trioxide [As III], the “oligonucleotide uptake (Cy5-ON by gymnosis)” value [4] is reported as “No significant changes”, the CDR-1 gene expression [12] is reported as “silenced as a function of increasing As III concentrations” and the “frequency of splice switching” value [1] is reported as “increased frequency of splice switching”. The “upregulation of SSO-654-mediated EGFP expression” value [1] was “three- to five-fold”, the Malat-1 gene expression [13] was “silenced as a function of increasing As III concentrations” and the “β-Cat-ASO activity (β-catenin protein)” value [6] was “did not significantly increase”. For the same molecule, the cell viability [14] was “No significant changes”, the “PKR activation / expression” value [3] was “PKR is activated” and the “expression of HDAC-2 mRNA” value [15] was “did not significantly change”. For the same molecule, the “BCL2-ASO activity (BCL-2 protein)” value [11] was “did not significantly increase” and the “cytoplasmic oligonucleotide function (eGFP mRNA silencing by ON-eGFP)” value [16] was “some loss of oligonucleotide function”.

In the case of “β-Cat-ASO: Phosphorothioate LNA gapmer ASO targeting β-catenin, 5′-CCAtcttgtgatcCAT-3′ (SEQ ID NO: 5) (antisense CCATCTTGTGATCCAT; sugars from the 5' end l3 d10 l3, all phosphorothioate, methylation of C not given here)”, the β-catenin gene expression [6] is reported as “nearly eliminated β-catenin gene expression”.
